These results are taken from US7786071B2 (priority 2003, dated 2010).

For one test, the target named is T1, rePON1 (G3H8) (Oryctolagus cuniculus, UniProt P27170, A301G/A320V/A67S/G19R/H177S/I126T/I187A/K138S/K151R/K297E/K93E/L143V/L7P/M130L/M341L/P82S/S101G/V343I).
T1 construct: leaving the intact, 355 amino acids, PON1 protein without any additions; made in house; host or cells: E. coli Origami B (DE3), truncated pET32 vector without Trx, His and S tags
Put plainly: biochemical.

In test [1] the target is T2, HuPON1 purified from serum (Homo sapiens, UniProt P27169).
T2 construct: measured for hydrolysis of phenylacetate by serum huPON1; host or cells: human serum
The note with it: read-out: Ki for 2-hydroxyquinoline inhibition of phenyl acetate hydrolysis by HuPON1 purified from serum; cited from earlier work.

Several values for one entry are separate records, joined by “and”; a condition that tells them apart may be missing. Equal entries are not always repeated.

T1 sequence (P27170 with tags, fused parts or gaps with the stated changes): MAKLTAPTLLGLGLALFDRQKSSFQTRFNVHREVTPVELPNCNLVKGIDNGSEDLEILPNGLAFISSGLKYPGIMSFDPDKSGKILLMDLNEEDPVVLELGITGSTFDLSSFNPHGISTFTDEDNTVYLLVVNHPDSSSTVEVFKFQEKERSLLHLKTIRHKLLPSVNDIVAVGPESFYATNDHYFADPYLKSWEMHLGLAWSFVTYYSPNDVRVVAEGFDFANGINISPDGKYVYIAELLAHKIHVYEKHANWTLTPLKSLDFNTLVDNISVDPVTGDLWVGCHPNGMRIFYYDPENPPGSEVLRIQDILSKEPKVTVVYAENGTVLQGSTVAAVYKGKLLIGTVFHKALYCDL
T2 sequence (P27169 whole entry): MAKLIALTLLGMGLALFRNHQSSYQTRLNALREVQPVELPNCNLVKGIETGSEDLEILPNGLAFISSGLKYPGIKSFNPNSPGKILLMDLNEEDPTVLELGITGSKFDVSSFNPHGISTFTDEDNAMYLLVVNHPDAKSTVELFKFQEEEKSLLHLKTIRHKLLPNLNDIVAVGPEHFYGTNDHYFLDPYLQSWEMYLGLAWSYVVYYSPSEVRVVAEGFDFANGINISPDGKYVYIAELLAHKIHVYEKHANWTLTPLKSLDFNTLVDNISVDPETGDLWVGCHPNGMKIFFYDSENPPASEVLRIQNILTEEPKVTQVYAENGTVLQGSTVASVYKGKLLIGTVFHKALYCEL

As a reminder, the Ki is the dissociation constant of the complex between target and ligand, obtained from inhibition or displacement. Consider `Oc1ccc2ccccc2n1` [2-hydroxyquinoline], for which the Ki at rePON1 (G3H8) (Inhibition constant (Ki)) was 11 µM and 3 µM and 4.2 µM; at rePON1 (G3H8) (inhibition constants for phenyl-acetate, paraxon and L-HcyT hydrolysis), 3 to 11 µM; in test [1] it was roughly 5 µM.
